Experimental data taken from patent publication US8653263B2 (Janssen Pharmaceutica, priority 2009, dated 2014).

Molecular target: human orexin-2 receptor (Homo sapiens (Human), UniProt O43614)
Assay: Human orexin 2 receptor radioligand binding ([3H]-EMPA competition)
Conditions: HEK293 cells stably expressing human orexin-2 receptor; [3H]-EMPA 5 nM final; apparent Ki=IC50/(1+C/Kd), Kd=2 nM; read-out: OR 2 Ki

Sequence of human orexin-2 receptor (O43614 whole entry): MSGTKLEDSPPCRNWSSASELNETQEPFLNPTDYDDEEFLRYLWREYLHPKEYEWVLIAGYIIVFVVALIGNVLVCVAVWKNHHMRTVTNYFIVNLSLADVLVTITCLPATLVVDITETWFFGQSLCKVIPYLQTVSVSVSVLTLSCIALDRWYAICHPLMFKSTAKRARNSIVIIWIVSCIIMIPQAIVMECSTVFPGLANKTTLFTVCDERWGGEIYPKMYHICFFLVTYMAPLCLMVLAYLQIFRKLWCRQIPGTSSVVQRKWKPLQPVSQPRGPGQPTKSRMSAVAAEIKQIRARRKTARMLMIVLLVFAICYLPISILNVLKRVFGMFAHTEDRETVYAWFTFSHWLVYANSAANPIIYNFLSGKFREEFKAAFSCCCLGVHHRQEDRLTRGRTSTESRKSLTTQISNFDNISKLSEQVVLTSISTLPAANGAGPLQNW

Row | Ki | SMILES
1 | 616 nM | O=C(c1ccccc1Br)N1CC2CN(c3cnc4ccccc4n3)CC2C1 (stereo not shown) [Example 42, 2-{5-[(2-Bromophenyl)carbonyl]hexahydropyrrolo[3,4-c]pyrrol-2(1H)-yl}quinoxaline]
2 | 7 nM | Cc1cc(C)nc(N2CC3CN(C(=O)c4ccccc4-c4cccs4)CC3C2)n1 (stereo not shown) [Example 43, 2-(4,6-Dimethylpyrimidin-2-yl)-5-[(2-thiophen-2-ylphenyl)carbonyl]octahydro-pyrrolo[3,4-c]pyrrole]
3 | 142 nM | Cc1cc(C)nc(N2CC3CN(C(=O)c4ccccc4-c4ccccc4)CC3C2)n1 (stereo not shown) [Example 44, 2-(Biphenyl-2-ylcarbonyl)-5-(4,6-dimethylpyrimidin-2-yl)octahydropyrrolo[3,4-c]pyrrole]
4 | 36 nM | COc1ccnc(N2CC3CN(C(=O)c4ccccc4-c4cccs4)CC3C2)n1 (stereo not shown) [Example 45, 2-(4-Methoxypyrimidin-2-yl)-5-[(2-thiophen-2-ylphenyl)carbonyl]octahydro-pyrrolo[3,4-c]pyrrole]
5 | 132 nM | O=C(c1ccccc1-c1cccs1)N1CC2CN(c3nc4ccc(F)cc4s3)CC2C1 (stereo not shown) [Example 46, 6-Fluoro-2-{5-[(2-thiophen-2-ylphenyl)carbonyl]hexahydropyrrolo[3,4-c]pyrrol-2(1H)-yl}-1,3-benzothiazole]
6 | 38 nM | Cc1cc(C)nc(N2CC3CN(C(=O)c4c(C)ccc5ccccc45)CC3C2)n1 (stereo not shown) [Example 47, 2-(4,6-Dimethylpyrimidin-2-yl)-5-[(2-methylnaphthalen-1-yl)carbonyl]octahydro-pyrrolo[3,4-c]pyrrole]
7 | 716 nM | Cc1ccnc(N2CC3CN(C(=O)c4ccccc4-c4cccc(F)c4)CC3C2)n1 (stereo not shown) [Example 48, 2-[(3′-Fluorobiphenyl-2-yl)carbonyl]-5-(4-methylpyrimidin-2-yl)octahydro-pyrrolo[3,4-c]pyrrole]
8 | 78 nM | COc1ccnc(N2CC3CN(C(=O)c4c(C)ccc5ccccc45)CC3C2)n1 (stereo not shown) [Example 49, 2-(4-Methoxypyrimidin-2-yl)-5-[(2-methylnaphthalen-1-yl)carbonyl]octahydro-pyrrolo[3,4-c]pyrrole]
9 | 215 nM | Cc1ccnc(N2CC3CN(C(=O)c4c(C)ccc5ccccc45)CC3C2)n1 (stereo not shown) [Example 50, 2-[(2-Methylnaphthalen-1-yl)carbonyl]-5-(4-methylpyrimidin-2-yl)octahydro-pyrrolo[3,4-c]pyrrole]
10 | 644 nM | COc1ccnc(N2CC3CN(C(=O)c4ccccc4-c4cccc(F)c4)CC3C2)n1 (stereo not shown) [Example 51, 2-[(3′-Fluorobiphenyl-2-yl)carbonyl]-5-(4-methoxypyrimidin-2-yl)octahydro-pyrrolo[3,4-c]pyrrole]
11 | 65 nM | Cc1cc(C)nc(N2CC3CN(C(=O)c4ccccc4-c4cccc(F)c4)CC3C2)n1 (stereo not shown) [Example 52, 2-(4,6-Dimethylpyrimidin-2-yl)-5-[(3′-fluorobiphenyl-2-yl)carbonyl]octahydro-pyrrolo[3,4-c]pyrrole]
12 | 5000 nM | Cc1cc(C)nc(N2CC3CN(C(=O)c4ccccc4F)CC3C2)n1 (stereo not shown) [Example 53, [5-(4,6-Dimethyl-pyrimidin-2-yl)-hexahydro-pyrrolo[3,4-c]pyrrol-2-yl]-(2-fluoro-phenyl)-methanone]
13 | 769 nM | COc1ccnc(N2CC3CN(C(=O)c4ccccc4-c4ccc(C)cc4)CC3C2)n1 (stereo not shown) [Example 54, 2-(4-Methoxypyrimidin-2-yl)-5-[(4′-methylbiphenyl-2-yl)carbonyl]octahydro-pyrrolo[3,4-c]pyrrole]
14 | 744 nM | COc1ccnc(N2CC3CN(C(=O)c4ccccc4-c4cccc(Cl)c4)CC3C2)n1 (stereo not shown) [Example 55, 2-[(3′-Chlorobiphenyl-2-yl)carbonyl]-5-(4-methoxypyrimidin-2-yl)octahydro-pyrrolo[3,4-c]pyrrole]
15 | 80 nM | CCOc1ccc2ccccc2c1C(=O)N1CC2CN(c3nccc(OC)n3)CC2C1 (stereo not shown) [Example 56, 2-[(2-Ethoxynaphthalen-1-yl)carbonyl]-5-(4-methoxypyrimidin-2-yl)octahydropyrrolo[3,4-c]pyrrole]
16 | 167 nM | COc1ccnc(N2CC3CN(C(=O)c4ccc(F)c5ccccc45)CC3C2)n1 (stereo not shown) [Example 57, 2-[(4-Fluoronaphthalen-1-yl)carbonyl]-5-(4-methoxypyrimidin-2-yl)octahydro-pyrrolo[3,4-c]pyrrole]
17 | 227 nM | COc1ccnc(N2CC3CN(C(=O)c4cccc5ccccc45)CC3C2)n1 (stereo not shown) [Example 58, 2-(4-Methoxypyrimidin-2-yl)-5-(naphthalen-1-ylcarbonyl)octahydropyrrolo[3,4-c]pyrrole]
18 | 778 nM | CCOc1ccccc1C(=O)N1CC2CN(c3nccc(OC)n3)CC2C1 (stereo not shown) [Example 59, 2-[(2-Ethoxyphenyl)carbonyl]-5-(4-methoxypyrimidin-2-yl)octahydropyrrolo[3,4-c]pyrrole]
19 | 173 nM | COc1ccnc(N2CC3CN(C(=O)c4c(OC)ccc5ccccc45)CC3C2)n1 (stereo not shown) [Example 60, 2-[(2-Methoxynaphthalen-1-yl)carbonyl]-5-(4-methoxypyrimidin-2-yl)octahydropyrrolo[3,4-c]pyrrole]
20 | 224 nM | O=C(c1ccccc1-c1ccccc1)N1CC2CN(c3nccc(-c4cn[nH]c4)n3)CC2C1 (stereo not shown) [Example 61, 2-(Biphenyl-2-ylcarbonyl)-5-[4-(1H-pyrazol-4-yl)pyrimidin-2-yl]octahydro-pyrrolo[3,4-c]pyrrole]
21 | 42 nM | O=C(c1ccccc1-c1cccs1)N1CC2CN(c3nccc(-c4cn[nH]c4)n3)CC2C1 (stereo not shown) [Example 62, 2-[4-(1H-Pyrazol-4-yl)pyrimidin-2-yl]-5-[(2-thiophen-2-ylphenyl)carbonyl]octahydro-pyrrolo[3,4-c]pyrrole]
22 | 44 nM | Cc1cnc(C)c(N2CC3CN(C(=O)c4ccccc4-c4cccs4)CC3C2)n1 (stereo not shown) [Example 63, 2-(3,6-Dimethylpyrazin-2-yl)-5-[(2-thiophen-2-ylphenyl)carbonyl]octahydro-pyrrolo[3,4-c]pyrrole]
23 | 579 nM | Cc1cnc(N2CC3CN(C(=O)c4ccccc4-c4ccccc4)CC3C2)c(C)n1 (stereo not shown) [Example 64, 2-(Biphenyl-2-ylcarbonyl)-5-(3,5-dimethylpyrazin-2-yl)octahydropyrrolo[3,4-c]pyrrole]
24 | 228 nM | Cc1nc2ccccc2nc1N1CC2CN(C(=O)c3ccccc3-c3cccs3)CC2C1 (stereo not shown) [Example 65, 2-Methyl-3-{5-[(2-thiophen-2-ylphenyl)carbonyl]hexahydropyrrolo[3,4-c]pyrrol-2(1H)-yl}quinoxaline]
25 | 449 nM | Cc1nc2ccccc2nc1N1CC2CN(C(=O)c3ccccc3-c3ccccc3)CC2C1 (stereo not shown) [Example 66, 2-[5-(Biphenyl-2-ylcarbonyl)hexahydropyrrolo[3,4-c]pyrrol-2(1H)-yl]-3-methylquinoxaline]
26 | 119 nM | Cc1cc(C)nc(N2CC3CN(C(=O)c4ccccc4-n4cccn4)CC3C2)n1 (stereo not shown) [Example 67, 2-(4,6-Dimethylpyrimidin-2-yl)-5-{[2-(1H-pyrazol-1-yl)phenyl]carbonyl}octahydro-pyrrolo[3,4-c]pyrrole]
27 | 13 nM | COc1cc(OC)nc(N2CC3CN(C(=O)c4c(F)cccc4-c4ncccn4)CC3C2)n1 (stereo not shown) [Example 68, 2-(4,6-Dimethoxypyrimidin-2-yl)-5-[(2-fluoro-6-pyrimidin-2-ylphenyl)carbonyl]octahydropyrrolo[3,4-c]pyrrole]
28 | 17 nM | Cc1cc(C)nc(N2CC3CN(C(=O)c4ccccc4-c4ccccn4)CC3C2)n1 (stereo not shown) [Example 69, 2-(4,6-Dimethylpyrimidin-2-yl)-5-[(2-pyridin-2-ylphenyl)carbonyl]octahydro-pyrrolo[3,4-c]pyrrole]
